According to publication PMC5766618, “Paper-based inkjet bioprinting to detect fluorescence resonance energy transfer for the assessment of anti-inflammatory activity” (Scientific Reports, 2018):

Biological target: cAMP-specific 3′,5′-cyclic phosphodiesterase 4B (PDE4B) (Homo sapiens, UniProt Q07343)
Sequence (Q07343 whole entry): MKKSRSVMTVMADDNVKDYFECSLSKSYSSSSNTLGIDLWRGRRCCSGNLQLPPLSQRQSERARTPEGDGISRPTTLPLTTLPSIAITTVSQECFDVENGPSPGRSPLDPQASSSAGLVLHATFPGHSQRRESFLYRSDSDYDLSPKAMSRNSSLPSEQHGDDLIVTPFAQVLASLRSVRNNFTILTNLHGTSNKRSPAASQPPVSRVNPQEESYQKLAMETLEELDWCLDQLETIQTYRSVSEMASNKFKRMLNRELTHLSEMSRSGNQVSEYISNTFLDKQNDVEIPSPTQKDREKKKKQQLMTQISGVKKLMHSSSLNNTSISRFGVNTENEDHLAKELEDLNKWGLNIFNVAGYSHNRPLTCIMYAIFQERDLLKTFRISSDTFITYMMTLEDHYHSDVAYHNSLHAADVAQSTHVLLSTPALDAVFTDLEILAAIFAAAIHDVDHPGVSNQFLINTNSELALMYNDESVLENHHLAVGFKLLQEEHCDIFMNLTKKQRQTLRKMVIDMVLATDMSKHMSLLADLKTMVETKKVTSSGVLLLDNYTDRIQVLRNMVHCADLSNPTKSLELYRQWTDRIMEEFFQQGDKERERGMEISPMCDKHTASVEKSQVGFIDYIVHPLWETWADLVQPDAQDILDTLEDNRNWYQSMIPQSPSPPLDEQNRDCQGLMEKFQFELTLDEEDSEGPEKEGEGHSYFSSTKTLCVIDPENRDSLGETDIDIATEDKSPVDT

## COc1ccc(C2CNC(=O)C2)cc1OC1CCCC1 (stereo not shown) [roliparm]
  inkjet-printed paper-based competitive FRET cAMP assay of PDE4B inhibition (IM50): 2.46e-13 mol
